Measured values as given in patent US5120752A, “Cyclopropyl derivative lipoxygenase inhibitors” (Abbott Laboratories, priority 1990, dated 1992).

Experiments:
leukotriene biosynthesis = experiment: Inhibition of leukotriene biosynthesis in vivo after oral administration, rat peritoneal anaphylaxis model; conditions: 200 μmol/kg oral (gavage), 1 h before antigen challenge; for inhibition in vivo at 200 µmol/kg: read-out: % Inhibition of Leukotrienes at 200 μmol/kg oral dose
Protocol: Inhibition of the biosynthesis of leukotrienes in vivo after oral administration of representative test compounds of this invention was determined using a rat peritoneal anaphylaxis model in a similar manner as that described by Young and coworkers (Young, P. R.; Dyer, R. D.; Carter, G. W. Fed. Proc., Fed. Am. Soc. Exp. Biol. 1985, 44, 1185). In this model rats were injected intraperitoneally (ip) with rabbit antibody to bovine serum albumin (BSA) and three hours later injected ip with BSA to induce an antgen-antibody response. Rats were sacrificed 15 minutes after this challenge and the peritoneal fluids were collected and analyzed for leukotriene levels. Test compounds were administered by gavage one hour prior to the antigen challenge. Percent inhibition values were determined by comparing the treatment group to the mean of the control group. The results of this assay, for representative compounds of the present invention, at an oral dose level of […] are presented in Table 2, and at an oral dose of […] in Table 3.

[1] = system: LTB4 biosynthesis in human whole blood; experiment: Inhibition of calcium ionophore-induced LTB4 biosynthesis in human whole blood; type: cell-based; conditions: A23187 50 μM, 15 min preincubation, read-out: Inhibition of Leukotriene Biosynthesis IC50
Protocol: Inhibition of leukotriene biosynthesis was evaluated in an assay, involving calcium ionophore-induced LTB4 biosynthesis expressed by human whole blood. Heparinized (20 U/mL) human blood (0.3 mL) was preincubated with test compound or vehicle for 15 min. at 37° C. Eicosanoid biosynthesis was initiated by adding calcium ionophore (A23187) in DMSO to a final concentration of 50 μM and terminated after 30 min. by rapid cooling of the blood in an ice bath and centrifuging at 3° C. for 10 min at 2500×g. The plasma was mixed with 4 volumes of methanol and allowed to stand for at least 30 min. at 3° C. prior to centrifuging at 1800×g for 10 min. The level of LTB4 in aliquots of the methanol-plasma extract was analyzed by radio-immunoassay or enyme-immunoassay techniques.

5-lipoxygenase = target: T1, 5-lipoxygenase (Rattus norvegicus, UniProt P12527); experiment: In vitro inhibition of 5-lipoxygenase (20,000×g supernatant from homogenized RBL-1 cells, radiolabeled arachidonic acid); type: biochemical; conditions: 20,000×g supernatant of RBL-1 cells; triplicate; read-out: IC50 (in vitro inhibitory potency against 5-lipoxygenase)
T1 construct: 20,000×g supernatant from 1.5 million homogenized RBL-1 cells; endogenous in cells; host or cells: RBL-1 cells (20,000×g supernatant of homogenate)
T1 sequence (P12527 1-673): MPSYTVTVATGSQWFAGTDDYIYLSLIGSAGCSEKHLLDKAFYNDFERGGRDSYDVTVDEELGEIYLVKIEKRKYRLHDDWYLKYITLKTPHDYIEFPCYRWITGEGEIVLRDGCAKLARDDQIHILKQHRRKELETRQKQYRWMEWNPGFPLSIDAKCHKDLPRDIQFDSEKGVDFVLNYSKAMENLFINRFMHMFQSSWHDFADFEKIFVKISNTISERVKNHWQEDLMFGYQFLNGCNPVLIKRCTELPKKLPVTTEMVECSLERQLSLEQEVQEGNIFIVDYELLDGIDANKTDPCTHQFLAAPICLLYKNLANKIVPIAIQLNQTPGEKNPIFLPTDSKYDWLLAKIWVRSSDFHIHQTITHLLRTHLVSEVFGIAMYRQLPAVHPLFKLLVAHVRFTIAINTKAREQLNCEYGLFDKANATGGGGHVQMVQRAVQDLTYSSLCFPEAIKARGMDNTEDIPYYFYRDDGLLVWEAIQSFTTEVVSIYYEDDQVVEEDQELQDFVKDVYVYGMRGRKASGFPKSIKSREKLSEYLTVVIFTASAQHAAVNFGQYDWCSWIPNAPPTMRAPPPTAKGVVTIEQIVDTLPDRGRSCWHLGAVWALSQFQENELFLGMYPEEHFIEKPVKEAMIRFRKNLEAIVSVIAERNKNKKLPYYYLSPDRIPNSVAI
Protocol: Assays to determine 5-lipoxygenase inhibitory activity were performed in […] incubations containing the 20,000×g supernatant from 1.5 million homogenized RBL-1 cells and various concentrations of the test compound. Reactions were initiated by addition of radiolabeled arachidonic acid and terminated by acidification and ether extraction. Reaction products were separated from nonconverted substrate by thin layer chromatography and measured by liquid scintillation spectroscopy. All incubations were performed in triplicate. Inhibition of 5-lipoxygenase activity was calculated as the ratio of the amount of product formed in the presence and absence of inhibitor. IC50 values (concentration of compound producing 50% enzyme inhibition) were calculated by linear regression analysis of percentage inhibition versus log inhibitor concentration plots. (Dyer, R .D.; Haviv, F.; Hanel, A. M.; Bornemier, D. A.; Carter, G. W. Fed. Proc., Fed. Am. Soc. Exp. Biol. 1984, 43, 1462A).

IC50 [1] [nM] | IC50 (5-lipoxygenase) [nM] | SMILES | inhibition in vivo at 200 µmol/kg (leukotriene biosynthesis) [%] | % Inhibition of Leukotrienes at 200 μmol/kg oral dose (leukotriene biosynthesis) [%]
– | – | NC(=O)N(O)C[C@@H]1C[C@H]1CCc1ccccc1 (relative stereo) [Example 33, N-(1-trans-(2-(2-phenylethyl)cyclopropyl)methyl)-N-hydroxyurea] | 84 | –
60 | – | NC(=O)N(O)C[C@@H]1C[C@H]1c1cnc(Oc2ccc(Cl)cc2)s1 (relative stereo) [Example 199, N-(1-trans-(2-(2-(4-chlorophenoxy)-5-thiazolyl)cyclopropyl)methyl)-N-hydroxyurea] | – | –
740 | – | CCOc1ccc(Oc2cccc([C@@H]3C[C@H]3CN(O)C(=O)NC3CC3)c2)cc1 (relative stereo) [Example 165] | – | –
620 | – | CNC(=O)N(O)C(C)[C@@H]1C[C@H]1c1ccco1 (stereo partly drawn) [Example 183, N-(1-trans-(2-(2-furanyl)cyclopropyl)ethyl)-N-hydroxy-N'-methylurea] | – | –
– | 300 | NC(=O)N(O)CC[C@@H]1C[C@H]1c1ccccc1 (relative stereo) [Example 34, N-(2-trans-(2-phenylcyclopropyl)ethyl)-N-hydroxyurea] | 100 | –
210 | – | CNC(=O)N(O)C[C@@H]1C[C@H]1c1ccsc1 (relative stereo) [Example 187, N-(1-trans-(2-(3-thienyl)cyclopropyl)methyl)-N-hydroxy-N'-methylurea] | – | –
– | – | NC(=O)N(O)C[C@@H]1C[C@H]1c1cc2ccccc2s1 (relative stereo) [Example 12] | 68 | –
– | 1700 | CC(=O)N(O)C[C@@H]1C[C@H]1c1ccccc1 (relative stereo) [Example 27, N-(1-trans-(2-phenylcyclopropyl)methyl)-N-hydroxyacetamide] | 99 | –
– | 100 | CNC(=O)N(O)C[C@@H]1C[C@H]1c1cccc(Oc2ccccc2)c1 (relative stereo) [Example 11, N-(1-trans-(2-(3-phenoxyphenyl)cyclopropyl)methyl)-N-hydroxy-N'-methylurea] | 65 | –
– | – | CC(C)Cc1ccc([C@@H]2C[C@H]2C(C)N(O)C(N)=O)cc1 (stereo partly drawn) [Example 19, N-(1-trans-(2-(4-(2-methyl-1-propyl)phenyl)cyclopropyl)-ethyl)-N-hydroxyurea] | 64 | –
– | – | CC([C@@H]1C[C@H]1c1cc2ccccc2s1)N(O)C(N)=O (stereo partly drawn) [Example 1, N-(1-trans-(2-(benzo[b]thien-2-yl)cyclopropyl)ethyl)-N-hydroxyurea] | 62 | –
– | 100 | CC([C@@H]1C[C@H]1c1ccc(Br)cc1)N(O)C(N)=O (stereo partly drawn) [Example 37, N-(1-trans-(2-(4-bromophenyl)cyclopropyl)ethyl)-N-hydroxyurea] | 93 | –
– | 1100 | Cc1ccc([C@@H]2C[C@H]2C(C)N(O)C(N)=O)o1 (relative stereo) [Example 26, N-(1-trans-((5-methylfuran-2-yl)cyclopropyl)ethyl)-N-hydroxyurea] | – | 92
– | 300 | Cc1ccc([C@@H]2C[C@H]2CN(O)C(N)=O)cc1 (relative stereo) [Example 47, N-(1-trans-(2-(4-methylphenyl)cyclopropyl)methyl)-N-hydroxyurea] | 100 | –
– | – | Cc1ccc([C@@H]2C[C@H]2C(C)N(O)C(N)=O)cc1 (stereo partly drawn) [Example 39, N-(1-trans-(2-(4-methylphenyl)cyclopropyl)ethyl)-N-hydroxyurea] | 82 | –
– | – | NC(=O)N(O)C[C@@H]1C[C@H]1c1ccc(Br)cc1 (relative stereo) [Example 35, N-(1-trans-(2-(4-bromophenyl)cyclopropyl)methyl)-N-hydroxyurea] | 99 | –
– | – | CNC(=O)N(O)C[C@@H]1C[C@H]1c1cc2ccccc2s1 (relative stereo) [Example 13] | 76 | –
– | 1800 | NC(=O)N(O)C[C@@H]1C[C@H]1c1ccccc1 (relative stereo) [Example 4, N-1-(trans-(2-phenylcyclopropyl)methyl)-N-hydroxyurea] | 97 | –
– | 70 | CNC(=O)N(O)C(C)[C@@H]1C[C@H]1c1cccc(Oc2ccccc2)c1 (stereo partly drawn) [Example 17, N-(1-trans-(2-(3-phenoxyphenyl)cyclopropyl)ethyl)-N-hydroxy-N'-methylurea] | 81 | –
– | 2800 | NC(=O)N(O)C[C@H]1C[C@H]1c1ccccc1 (relative stereo) [Example 16, N-(1-cis-(2-phenylcyclopropyl)methyl)-N-hydroxyurea] | 61 | –
– | 100 | CC(Oc1ccc([C@@H]2C[C@H]2CN(O)C(N)=O)cc1)c1ccccc1 (stereo partly drawn) [Example 23, N-(1-trans-(2-(4-(1-phenylethoxy)phenyl)cyclopropyl)methyl)-N-hydroxyurea] | 93 | –
– | 100 | CC(Oc1ccc([C@H]2[C@H](CN(O)C(N)=O)C2(C)C)cc1)c1ccccc1 (stereo partly drawn) [Example 25] | 52 | –
– | 900 | COc1ccc([C@@H]2C[C@H]2C(C)N(O)C(N)=O)cc1 (stereo partly drawn) [Example 22, N-(1-trans-(2-(4-methoxyphenyl)cyclopropyl)ethyl)-N-hydroxyurea] | 96 | –
– | – | CC(N(O)C(N)=O)[C@]1(C)C[C@H]1c1ccccc1 (stereo partly drawn) [Example 5, N-(1-trans-(1-methyl-2-phenylcyclopropyl)ethyl)-N-hydroxyurea] | 90 | –
– | 200 | NC(=O)N(O)C[C@@H]1C[C@H]1c1ccccc1Oc1ccccc1 (relative stereo) [Example 40, N-(1-trans-(2-(2-phenoxyphenyl)cyclopropyl)methyl)-N-hydroxyurea] | 97 | –
– | 100 | CC(=O)N(O)C(C)[C@@H]1C[C@H]1c1cc2ccccc2s1 (stereo partly drawn) [Example 28, N-(1-trans-(2-(benzo[b]thien-2-yl)cyclopropyl)ethyl)-N-hydroxyacetamide] | 73 | –
– | 1600 | CC([C@@H]1C[C@H]1c1ccccc1)N(O)C(N)=O (stereo partly drawn) [Example 3, N-(1-trans-(2-phenylcyclopropyl)ethyl)-N-hydroxyurea] | 100 | –
– | 100 | NC(=O)N(O)C[C@@H]1C[C@H]1c1cccc(Oc2ccccc2)c1 (relative stereo) [Example 10, N-(1-trans-(2-(3-phenoxyphenyl)cyclopropyl)methyl)-N-hydroxyurea] | 97 | –
– | 900 | COc1ccc([C@@H]2C[C@H]2C(C)N(O)C(C)=O)cc1 (stereo partly drawn) [Example 29, N-(1-trans-(2-(4-methoxyphenyl)cyclopropyl)ethyl)-N-hydroxyacetamide] | 96 | –
– | 1800 | CC(C1CC1c1ccccc1)N(O)C(N)=O (stereo not drawn) [Example 9, N-(1-cis-(2-phenylcyclopropyl)ethyl)-N-hydroxyurea] | 61 | –
